Test results: paper PMC10107996, “Release of hepatitis B virions is positively regulated by glucose‐regulated protein 78 through direct interaction with preS1” (Journal of Medical Virology, 2022)
“Also recorded” adds a separate entry of the source. No end group written: not given here.

What was measured:
recombinant GRP78 = target: T1, recombinant GRP78 (Homo sapiens, UniProt P11021); assay: Isothermal titration calorimetry (ITC) with recombinant GRP78; format: binding
T1 construct: His; made in house; host or cells: Escherichia coli BL21
Method: Additionally, we collected purified recombinant GRP78 protein (Supporting Information: Figure S2) and HBV‐enveloped particles from the cell supernatant, followed by separation by ultracentrifugation at 4°C for isothermal titration calorimetry (ITC) experiments. […] These findings confirmed the ability of HBV to promote GRP78 expression and identified that GRP78 directly interacts with preS1 and HBV‐enveloped particles.
Affinity constants under equilibrium (Ka) were obtained using a Nano ITC instrument. GRP78 protein solution (300 µL) was titrated with repeated injections of 40 µL solution until saturation at 25 °C. Nano Analyze software was used for the integration of heat signals and nonlinear regression analysis of the data.

[1] = system: HBV‐enveloped particle release from HepAD38 cells; assay: HBV-enveloped particle release, particle gel assay, HepAD38 cells; format: cell-based, hepatitis B virus
Method: (§1) HBV virions were identified by particle gel assay.[25] HBV‐producing cells were cultured, followed by harvesting of the culture medium. Cell supernatant was added to 35% PEG8000 and shaken at 4°C for >2 h. The viral particles were dissolved in TNE buffer, incubated overnight at 4°C, and subjected to agarose gel electrophoresis. The samples were transferred to a nitrocellulose membranes, treated with methanol for 30 min, blocked with 5% nonfat milk, and incubated with anti‐preS1 (for enveloped particles) or anti‐HBc (for capsid particles) antibodies for 1 h at 20°C. Following incubation with an antimouse secondary antibody (1:10,000) at 4°C overnight, the membrane was visualized using the an enhanced chemiluminescence western blot detection kit (Beyotime Biotech).

[2] = system: HBV‐enveloped particle release from HepG2.2.15 cells; assay: HBV-enveloped particle release and viral DNA content, particle gel assay and qPCR, HepG2.2.15 cells; format: cell-based, hepatitis B virus; conditions: for inhibition of GRP78-enhanced enveloped‐particle release and viral DNA content: GRP78‐overexpressing HepG2.2.15 cells
Method: as §1

[3] = target: T2, purified recombinant GRP78 protein (human, UniProt P11021 19-654); assay: ITC; recombinant GRP78 with preS1 peptides; conditions: both partners purified
T2 construct: source: recombinant, purified

[4] = target: T2, purified recombinant GRP78 protein; assay: MST; purified truncated GST-preS1 proteins with GRP78; conditions: both partners purified
[5] = synthesized peptide and recombinant GRP78, 25 °C

T1 sequence (P11021 19-654): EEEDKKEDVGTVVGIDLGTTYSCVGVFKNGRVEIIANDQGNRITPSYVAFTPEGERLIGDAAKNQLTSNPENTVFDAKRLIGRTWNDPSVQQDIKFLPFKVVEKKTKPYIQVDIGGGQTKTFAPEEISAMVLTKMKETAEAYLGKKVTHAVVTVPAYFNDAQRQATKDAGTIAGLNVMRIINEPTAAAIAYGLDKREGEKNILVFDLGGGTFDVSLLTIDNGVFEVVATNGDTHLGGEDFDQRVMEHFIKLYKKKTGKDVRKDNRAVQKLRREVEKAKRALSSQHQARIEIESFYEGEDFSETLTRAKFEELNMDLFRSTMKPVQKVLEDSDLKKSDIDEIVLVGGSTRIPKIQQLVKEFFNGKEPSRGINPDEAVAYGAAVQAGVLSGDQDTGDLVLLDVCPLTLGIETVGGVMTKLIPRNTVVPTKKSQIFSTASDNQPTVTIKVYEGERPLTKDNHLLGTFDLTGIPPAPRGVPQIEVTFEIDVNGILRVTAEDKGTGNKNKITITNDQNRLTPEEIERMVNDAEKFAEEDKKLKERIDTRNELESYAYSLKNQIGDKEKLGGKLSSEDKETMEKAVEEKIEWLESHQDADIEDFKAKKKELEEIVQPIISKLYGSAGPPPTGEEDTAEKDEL
T2 sequence (P11021 19-654): as above

Molecule: LTPHKHHKHLHA [GBP65]
- N (sites) (recombinant GRP78; [5]): 10.0±1.05 sites
- △H (recombinant GRP78; [5]): 2.58 ± 0.647 kcal/mol

Molecule: VTTVGMPNKSFF [GBP68]
- inhibition of enveloped‐particle release [1]: dose‐dependent manner
- effect on abundance of cytoplasmic viral particles and core particle release ([2]; HepG2.2.15 and HepAD38 cells, particle gel assay with anti‐HBcAg and anti‐preS1 antibodies): negligible effects
- inhibitory effect on HBV‐enveloped particle release and viral DNA content in supernatant ([2]; HepG2.2.15 cells, particle gel assay with anti‐preS1 antibody and qPCR, n = 3): significantly stronger inhibitory effect; also recorded: dose‐dependent manner
- N (sites) (recombinant GRP78; [5]): 5.79±0.738 sites
- △H (recombinant GRP78; [5]): 3.49 ± 0.881 kcal/mol

Molecule: MKAHHSQLYPRH [GBP66, phage-display 12-mer peptide […]]
- N (sites) (recombinant GRP78; [5]): 10.0±2.38 sites
- △H (recombinant GRP78; [5]): 1.55 ± 0.647 kcal/mol

Molecule: GSWNTFRAQPTI [GBP64, phage-display 12-mer peptide […]]
- N (sites) (recombinant GRP78; [5]): 2.88±0.501 sites
- △H (recombinant GRP78; [5]): 0.486 ± 0.186 kcal/mol

Molecule: FHSHHNRPMKSP [GBP63, phage-display 12-mer peptide […]]
- N (sites) (recombinant GRP78; [5]): 0.248±3.22 sites
- △H (recombinant GRP78; [5]): 8.83 ± 119 kcal/mol

Molecule: WDLAWMFRLPVG [pep415, reference compound]
- inhibition of GRP78-enhanced enveloped‐particle release and viral DNA content ([2]; n = 3): inhibited

Molecule: SNIGALQFLPPP [GBP67, phage-display 12-mer peptide […]]
- KD (recombinant GRP78; [5]): negative
- N (sites) (recombinant GRP78; [5]): negative
- △H (recombinant GRP78; [5]): negative

Molecule: QPTPISPPLRN [pep60, hydrophobic preS1 peptide 91‐[…]‐102]
- inhibition of GRP78-enhanced enveloped‐particle release and viral DNA content ([2]; n = 3): minimal effects
- interaction with GRP78 in words (recombinant GRP78; 25 °C): weak interaction

B1: pep56 (19-DPAFGANSL-29) (peptide)
peptide: DPAFGANSL
notes: also called pepp56; source: designed hydrophobic peptide of preS1
- Kd [3]: 6.59 nM

B2: GST-preS1-p3 (residues 66-119) (domain or fragment)
chain: GFTPPHGGLLGWSPQAQGILTTLPAAPPPASTNRQSGRQPTPISPPLRDSHPQA
modifications: also: GST fusion
- Kd [4]: 431 nM

B3: pep59 (70-QGIMQTVPAN-80) (peptide)
peptide: QGIMQTVPAN
notes: source: designed hydrophobic peptide of preS1
- Kd [3]: 10.6 nM

B4: GST-preS1-p2 (residues 25-90) (domain or fragment)
chain: FPDHQLDPAFGANSNNPDWDFNPNKDHWPEANQVGAGAFGPGFTPPHGGLLGWSPQAQGILTTLPA
modifications: also: GST fusion
- Kd [4]: 1200 nM
